Measurements as given in ChEMBL document CHEMBL1201862, “PubChem BioAssay data set” (2004).
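Five compound concentrations were applied to cells in 96-well plates for 48 hours; endpoints were derived by simple linear interpolation of the resulting dose-response curve. The concentration for 50% growth inhibition is given as GI50.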 Calls of active or inactive are those of the source. Rule as the data show it: active = GI50 up to about 1.1 µM and inactive = higher.

Legend:
Assay in all cases: NCI anticancer screen, dose series, 48 h
BT-549 = test system: BT-549
SK-MEL-2 = test system: SK-MEL-2
EKVX = test system: EKVX
MDA-N = test system: MDA-N
MDA-MB-231 = test system: MDA-MB-231
CCRF-CEM = test system: CCRF-CEM
A549 = test system: A549
U-251 = test system: U-251
HOP-92 = test system: HOP-92
SK-MEL-5 = test system: SK-MEL-5
HL-60 = test system: HL-60
NCI-H460 = test system: NCI-H460
K562 = test system: K562
SK-OV-3 = test system: SK-OV-3
SF-295 = test system: SF-295
ACHN = test system: ACHN
Hs-578T = test system: Hs-578T
SK-MEL-28 = test system: SK-MEL-28
COLO 205 = test system: COLO 205

| Compound | GI50 (BT-549) | GI50 (SK-MEL-2) | GI50 (EKVX) | GI50 (MDA-N) | GI50 (MDA-MB-231) | GI50 (CCRF-CEM) | GI50 (A549) | GI50 (U-251) | GI50 (HOP-92) | GI50 (SK-MEL-5) | GI50 (HL-60) | GI50 (NCI-H460) | GI50 (K562) | GI50 (SK-OV-3) | GI50 (SF-295) | GI50 (ACHN) | GI50 (Hs-578T) | GI50 (SK-MEL-28) | GI50 (COLO 205) |
| --- | --- | --- | --- | --- | --- | --- | --- | --- | --- | --- | --- | --- | --- | --- | --- | --- | --- | --- | --- |
| CC(OCc1ccccc1)C(NC(=O)C1CSSCC(NC(=O)C(Cc2ccccc2)NC(=O)OCc2ccccc2)C(=O)NC(Cc2ccccc2)C(=O)NC(Cc2cn(C=O)c3ccccc23)C(=O)NC(CCCCNC(=O)OCc2ccccc2)C(=O)NC(C(C)OCc2ccccc2)C(=O)N1)C(N)=O (stereo unspecified) | 21.2 µM (inactive) | 13.1 µM (inactive) | > 83.2 µM (inactive) | 24.2 µM (inactive) | 12.6 µM (inactive) | 36.6 µM (inactive) | > 79.3 µM (inactive) | 25.1 µM (inactive) | 38.3 µM (inactive) | 24.5 µM (inactive) | 0.977 µM (active) | 22.5 µM (inactive) | 16.4 µM (inactive) | > 35.2 µM (inactive) | > 85.7 µM (inactive) | > 59.6 µM (inactive) | > 74.8 µM (inactive) | 27.9 µM (inactive) | 3.03 µM (inactive) |
| COC(=O)[C@]1(C)[C@H]2C[C@H]3O[C@H]4[C@H](O)[C@@H](O)OC(CC(O)C(C5=CC(=O)OC5)C(C5=CC(=O)OC5)C(O)CC56CCCCC7[C@@H](C)[C@H](C[C@H]8[C@](C)(C(=O)OC)[C@H](O)CC[C@]78C)O[C@H]([C@@H](O)[C@H](O)O5)[C@H]6O)(CCCCC([C@@H]3C)[C@]2(C)CC[C@@H]1O)[C@H]4O (stereo partly specified) | 0.0625 µM (active) | 0.237 µM (active) | 0.0295 µM (active) | 0.138 µM (active) | 0.347 µM (active) | 0.0603 µM (active) | 0.0286 µM (active) | 0.194 µM (active) | 0.281 µM (active) | 0.0296 µM (active) | 0.0513 µM (active) | 0.0233 µM (active) | 0.234 µM (active) | 0.302 µM (active) | 0.0767 µM (active) | < 0.0218 µM (active) | < 0.0251 µM (active) | 0.262 µM (active) | 0.338 µM (active) |
| O=C1CCCC1CN1CCCC1 (stereo unspecified) | 1.56 µM (inactive) | 7.14 µM (inactive) | 18.1 µM (inactive) | 13.5 µM (inactive) | 15.5 µM (inactive) | 0.207 µM (active) | > 75.5 µM (inactive) | 23 µM (inactive) | 6.56 µM (inactive) | 18 µM (inactive) | 0.367 µM (active) | 42.4 µM (inactive) | 0.251 µM (active) | 13.8 µM (inactive) | > 100 µM (inactive) | 6.08 µM (inactive) | 22.2 µM (inactive) | 13.6 µM (inactive) | 3.78 µM (inactive) |
| O=C1C(CN2CCCCC2)CCC1CN1CCCCC1 (stereo unspecified) | 19.1 µM (inactive) | 30.1 µM (inactive) | > 100 µM (inactive) | 15 µM (inactive) | 20.2 µM (inactive) | 1.06 µM (active) | > 96.6 µM (inactive) | > 46.7 µM (inactive) | 23.2 µM (inactive) | 43.9 µM (inactive) | 1.5 µM (inactive) | > 100 µM (inactive) | 1.2 µM (inactive) | > 100 µM (inactive) | > 46.5 µM (inactive) | 26 µM (inactive) | > 51.3 µM (inactive) | 20 µM (inactive) | 14.7 µM (inactive) |
| Cc1ccsc1C(=S)Nc1ccc(Cl)c(C(=O)OC(C(C)C)C(C)C)c1 | 3.38 µM (inactive) | 11.7 µM (inactive) | 23.2 µM (inactive) | 23.6 µM (inactive) | 17.2 µM (inactive) | 5.62 µM (inactive) | 12.2 µM (inactive) | 24.4 µM (inactive) | 16.3 µM (inactive) | 15.4 µM (inactive) | 11.4 µM (inactive) | 23.7 µM (inactive) | 3.97 µM (inactive) | 28.2 µM (inactive) | 21.9 µM (inactive) | 25.9 µM (inactive) | 39.4 µM (inactive) | 27.1 µM (inactive) | 12.9 µM (inactive) |
| Cc1ccc(S(=O)(=O)Nn2c(O)c(C#N)c(-c3ccc(N(C)C)cc3)c(C#N)c2=O)cc1 | > 50 µM (inactive) | > 50 µM (inactive) | > 50 µM (inactive) | > 50 µM (inactive) | > 50 µM (inactive) | > 50 µM (inactive) | > 50 µM (inactive) | > 50 µM (inactive) | > 50 µM (inactive) | 26.2 µM (inactive) | 28.9 µM (inactive) | > 50 µM (inactive) | > 50 µM (inactive) | 0.142 µM (active) | 0.023 µM (active) | > 50 µM (inactive) | > 50 µM (inactive) | > 50 µM (inactive) | > 50 µM (inactive) |
| C[N+](C)(C)CC(=O)N/N=C/c1ccncc1 | > 100 µM (inactive) | > 100 µM (inactive) | > 100 µM (inactive) | > 100 µM (inactive) | > 100 µM (inactive) | > 100 µM (inactive) | > 100 µM (inactive) | > 100 µM (inactive) | > 100 µM (inactive) | > 100 µM (inactive) | 65.6 µM (inactive) | > 100 µM (inactive) | > 100 µM (inactive) | > 100 µM (inactive) | > 100 µM (inactive) | > 100 µM (inactive) | > 100 µM (inactive) | > 100 µM (inactive) | > 100 µM (inactive) |
| COC12C=CC(CC1)C(C)(C)C2OS(C)(=O)=O (stereo unspecified) | > 100 µM (inactive) | > 100 µM (inactive) | > 100 µM (inactive) | > 100 µM (inactive) | > 100 µM (inactive) | > 100 µM (inactive) | > 100 µM (inactive) | > 100 µM (inactive) | > 100 µM (inactive) | > 100 µM (inactive) | > 100 µM (inactive) | > 100 µM (inactive) | > 100 µM (inactive) | > 100 µM (inactive) | > 100 µM (inactive) | > 100 µM (inactive) | > 100 µM (inactive) | > 100 µM (inactive) | > 100 µM (inactive) |
| CSc1nc(=O)c2nc(-c3cccs3)c(-c3cccs3)nc2n1C | 34.5 µM (inactive) | 49.2 µM (inactive) | 27.6 µM (inactive) | > 100 µM (inactive) | 97.7 µM (inactive) | > 100 µM (inactive) | 44.8 µM (inactive) | 28.2 µM (inactive) | 28.8 µM (inactive) | > 100 µM (inactive) | 96.6 µM (inactive) | > 100 µM (inactive) | > 100 µM (inactive) | 26.8 µM (inactive) | 32.7 µM (inactive) | 37.7 µM (inactive) | 35.6 µM (inactive) | 43.1 µM (inactive) | > 100 µM (inactive) |
| CC(C)OC(=O)C(NC(=O)C(CC(=O)OCc1ccccc1)NC(=O)OCc1ccccc1)NC(=O)C1C(C)(C)CCC1(C)C (stereo unspecified) | 17.4 µM (inactive) | 19.5 µM (inactive) | 3.85 µM (inactive) | 10.1 µM (inactive) | 2.1 µM (inactive) | 3.18 µM (inactive) | 2.22 µM (inactive) | 2.14 µM (inactive) | 11 µM (inactive) | 13.7 µM (inactive) | 3.76 µM (inactive) | 16.7 µM (inactive) | 4.31 µM (inactive) | 4.18 µM (inactive) | 14.1 µM (inactive) | 3.56 µM (inactive) | 6.98 µM (inactive) | > 42 µM (inactive) | 2.99 µM (inactive) |
| CC(C)Nc1[nH]c(C(=O)c2ccccc2)c(N)c1C(=S)Nc1ccccc1 | > 100 µM (inactive) | 23.8 µM (inactive) | > 100 µM (inactive) | 40.4 µM (inactive) | 28.5 µM (inactive) | > 100 µM (inactive) | 90.6 µM (inactive) | 43.2 µM (inactive) | > 100 µM (inactive) | 28.9 µM (inactive) | > 100 µM (inactive) | 57 µM (inactive) | 60.8 µM (inactive) | > 100 µM (inactive) | > 100 µM (inactive) | 63.1 µM (inactive) | 86.1 µM (inactive) | 17.4 µM (inactive) | 28.1 µM (inactive) |
| O=C(O)[C@H]1NC[C@H]2C(Br)=NO[C@@H]12 | > 100 µM (inactive) | > 100 µM (inactive) | > 100 µM (inactive) | > 100 µM (inactive) | > 100 µM (inactive) | > 100 µM (inactive) | > 100 µM (inactive) | > 100 µM (inactive) | > 100 µM (inactive) | > 100 µM (inactive) | > 100 µM (inactive) | > 100 µM (inactive) | > 100 µM (inactive) | > 100 µM (inactive) | > 100 µM (inactive) | > 100 µM (inactive) | > 100 µM (inactive) | > 100 µM (inactive) | > 100 µM (inactive) |
| COc1cc(/C=C/C(=O)O)ccc1OS(=O)(=O)O | > 100 µM (inactive) | > 100 µM (inactive) | > 100 µM (inactive) | > 100 µM (inactive) | > 100 µM (inactive) | > 100 µM (inactive) | > 100 µM (inactive) | > 100 µM (inactive) | > 100 µM (inactive) | > 100 µM (inactive) | > 100 µM (inactive) | > 100 µM (inactive) | > 100 µM (inactive) | > 100 µM (inactive) | > 100 µM (inactive) | > 100 µM (inactive) | > 100 µM (inactive) | > 100 µM (inactive) | > 100 µM (inactive) |
| Cn1c2ccccc2n2c(N=O)c(-c3ccccc3)nc12 | 27.6 µM (inactive) | 33.1 µM (inactive) | 19.4 µM (inactive) | 55.1 µM (inactive) | 53.6 µM (inactive) | 30.5 µM (inactive) | 21.6 µM (inactive) | 49.8 µM (inactive) | 84.3 µM (inactive) | 14.8 µM (inactive) | 92.3 µM (inactive) | 16.4 µM (inactive) | > 100 µM (inactive) | 67.3 µM (inactive) | 31.1 µM (inactive) | > 100 µM (inactive) | 70.3 µM (inactive) | > 100 µM (inactive) | 10.2 µM (inactive) |
